Measured values: patent US8541458B2, “Oxabicycloheptanes and oxabicycloheptenes, their preparation and use” (Lixte Biotechnology, Inc., priority 2008, dated 2013)
Where a name gives a salt, the structure may show the parent alone.

What was measured:
[1] = system: glioblastoma multiforme cells of line U373; test: Inhibition of growth of glioblastoma multiforme cells, 7 days exposure; format: cell-based
Procedure: Inhibition of growth of glioblastoma multiforme cells of line U373 by exposure for 7 days to increasing concentrations of compound 109 compared to 10 uM compound 100.
Inhibition of growth of glioblastoma multiforme cells of line U373 by exposure for 7 days to increasing concentrations of compound 110 compared to 10 uM compound 100.
Inhibition of growth of glioblastoma multiforme cells of line […] by exposure for 7 days to increasing concentrations of compound 113 compared to 10 uM compound 100.
Inhibition of Growth of Glioblastoma Multiforme Cells of Line […] by Exposure for 7 Days to Increasing Concentrations of Compound 109, 110, 112, and 113

[2] = system: Human Medulloblastoma DAOY cells; test: DAOY xenografts implanted subcutaneously in SCID mice, tumor volume; format: in vivo; conditions: subcutaneous DAOY xenografts, 0.12 mg and 0.18 mg doses, two weeks of treatment, vs vehicle (PBS)
Procedure: (§1) Medulloblastoma DAOY cells were implanted subcutaneously in the flanks of SCID mice. After 7 days when the implanted tumor cells reached a mass with the average diameter of 6 mm, 6 animals received 0.12 mg of Compound 110, 6 animals received 0.18 mg of Compound 110, and 6 animals, received vehicle (PBS) only. After two weeks of treatment all animals were sacrificed, the subcutaneous tumor masses resected, and their volumes calculated.
as §1, with “Human Medulloblastoma” for “Medulloblastoma”, “animals” for “animals,”, “treatment,” for “treatment”

Akt = Akt phosphorylation after intraperitoneal administration to mice; format: in vivo; conditions: given intraperitoneally to normal mice
Source text: The compounds described herein increase the phosphorylation of several regulatory proteins including Akt. At low doses that are non-toxic to mice, these compounds slightly stimulate cell proliferation and increase phosphorylation of Akt in human cancer cells lines tested, including SH-SY5Y.
The mechanism by which the compounds described herein exert their neuroprotective effect may be by increasing the intra-neuronal cell activity of Akt-1 and enhancing the acetylation of neuronal histones. Each of these compounds when given by intraperitoneal injection increase Akt phosphorylation in mouse neurons. This increase in Aky phosphorylation is associated with an increase in the phosphorylation of GSK-3β. Because increased phosphorylation of GSK-3β is known to decrease its activity, chronic suppression of GSK 3β by the compounds described herein may reduce tau phosphorylation. Reduction in tau phosphorylation reduces the formation of paired helical filaments, an intervention that should lessen the progression of tauopathies, including Alzheimer's disease, Parkinson's disease, amyotrophic lateral sclerosis, and other rarer neurodegenerative diseases characterized by abnormal depositions of tau molecules.

[3] = increasing concentrations, 7 days exposure

| SMILES | melting point | entry into the brain (Entry into the brain) | Akt phosphorylation (Akt) | inhibition of cell growth [1, 3] | further results |
| --- | --- | --- | --- | --- | --- |
| CN1CCN(C(=O)C2C3CCC(O3)C2C(=O)Oc2ccc(CC(N)C(=O)O)cc2)CC1 (centres unmarked) (as salt: hydrochloride) [Compound 110, 3-(4-Methylpiperazine-1-carbonyl)-7-oxa-bicyclo[2,2,1]heptane-2-carboxylic acid 4-(2-amino-2-carboxyethyl)-phenyl ester hydrochloride salt] | 110 °C (dec.) |  |  |  |  |
| O=C(OCc1ccccc1)C1C2CCC(O2)C1C(=O)N1CCN(CCO)CC1 (centres unmarked) [Compound 109, 3-[4-(2-Hydroxyethyl)-piperazine-1-carbonyl]-7-oxa-bicyclo[2.2.1]heptane-2-carboxylic acid benzyl ester] |  |  |  |  | inhibition of cell growth ([1]; highest concentrations, after 3 day): slight inhibition of cell growth; stimulation of cell growth ([1]; lower concentrations, increasing over 7 days): slight stimulatory activity |
| CN1CCN(C(=O)C2C3CCC(O3)C2C(=O)Oc2ccc(CC(N)C(=O)O)cc2)CC1 (centres unmarked) [Compound 110, 3-(4-Methylpiperazine-1-carbonyl)-7-oxa-bicyclo[2,2,1]heptane-2-carboxylic acid 4-(2-amino-2-carboxyethyl)-phenyl ester hydrochloride salt] |  | properties that enhance their entry into the brain | increased Akt phosphorylation | inhibited cell growth in a dose dependent manner | inhibition of tumor growth (tumor volume) [2]: significant inhibition of tumor growth |
| CN1CCN(C(=O)C2C3CCC(O3)C2C(=O)Oc2ccc(CC(NC(=O)OC(C)(C)C)C(=O)O)cc2)CC1 (centres unmarked) [Compound 112, 3-(4-Methylpiperazine-1-carbonyl)-7-oxa-bicyclo[2,2,1]heptane-2-carboxylic acid 4-(2-tert-butoxycarbonylamino-2-carboxyethyl)-phenyl ester] | 165 °C (dec.) | properties that enhance their entry into the brain |  | inhibited cell growth in a dose dependent manner |  |
| CN1CCN(C(=O)C2C3CCC(O3)C2C(=O)OCC(Cl)(Cl)Cl)CC1 (centres unmarked) [Compound 113, 3-(4-Methyl-piperazine-1-carbonyl)-7-oxa-bicylco[2,2,1]heptane-2-carboxylic acid 2,2,2-trichloroethyl ester] |  | properties that enhance their entry into the brain | increased Akt phosphorylation | inhibited cell growth in a dose dependent manner |  |
| O=C(O)C1C2CCC(O2)C1C(=O)NCCN1C(=O)NC(c2ccccc2)(c2ccccc2)C1=O (centres unmarked) [Compound 114, 3-[2-(2,5-Dioxo-4,4-diphenyl-imidazolidin-1-yl)-ethylcarbamoyl]-7-oxa-bicyclo(2.2.1]heptane-2-carboxylic acid] |  | properties that enhance their entry into the brain |  |  |  |
